The target of one test is CB2 (Homo sapiens, UniProt P34972). Briefly: Radioligand displacement assay on CB2 receptor. The test is classed as binding. On the set-up: purchased Perkin Elmer RBXCB2M. The method, then:
(§1) For the CB1 receptor, binding experiments were performed in the presence of 0.39 nM of the radioligand [^3H]CP55,940 (168 Ci/mmol) (Perkin Elmer, Waltham, MA, US) at 30°C in siliconized glass vials together with 7.16 µg of membrane recombinantly over-expressing CB1 (No. RBHCB1M, Perkin Elmer, Waltham, MA, US), which was resuspended in 0.2 mL (final volume) binding-buffer (50 mM TRIS-HCl, 2.5 mM EGTA, 5 mM MgCl2, 0.5 mg/mL fatty acid free BSA, pH 7.4). Test compounds were present at varying concentrations and the nonspecific binding of the radioligand was determined in the presence of 10 µM CP55,940 (Tocris Cookson Ltd., Bristol, UK). After 1.5 h incubation, the suspension was rapidly filtered through 0.05% polyethylenimine pre-soaked GF/C glass fiber filters on a 96-well cell harvester and washed nine times with 0.5 mL ice-cold washing-buffer (50 mM TRIS-HCl, 2.5 mM EGTA, 5 mM MgCl2, 2% BSA, pH 7.4). Radioactivity on filters was measured with a Beckman LS 6500 scintillation counter in 3 mL Ultima Gold scintillation liquid (Perkin Elmer, Waltham, MA, US). Data collected from three independent experiments performed in triplicates were normalized between 100% and 0% specific binding for [^3H]CP55,940. […] Derived from the dissociation constant (KD) of [^3H]CP55,940 and the concentration-dependent displacement (IC50 value), inhibition constants (Ki) of competitor compounds were calculated using the Cheng-Prusoff equation [Ki = IC50/(1+ L/KD)].
For CB2-receptor binding studies 3.8 µg of membrane recombinantly over-expressing CB2 (No. RBXCB2M, Perkin Elmer, Waltham, MA, US) were resuspended in 0.6 mL binding buffer (see above) together with 0.11 nM of the radioligand [^3H]CP55,940. The CB2-binding assay was conducted in the same manner as for CB1.
Background: In a radioligand displacement assay an active substance lowers the binding of a labelled ligand.

The test system of another test is NO2^- production. Nature of the test: NO2- production in LPS-stimulated human macrophages (Griess reagent). In kind it is cell-based. The settings on record: Figure 5; LPS 500 ng/ml; 5 µM for 18 h. The method, then: (§2) • Figure 1: AEA re-uptake inhibition of 2E,4E-dieneamides 1 and 9 into human primary monocytes and U937 cells. […] Data are mean values ± SEM of 3 independent experiments in a sigmoidal dose-response curve. • Figure 2: Concentration-dependent effects of 4 and 5 on FAAH activity. […] The maximal inhibition (32%) of 5 was measured at 1 µM. Data are mean values ± SEM of 3 independent experiments. • Figure 3: Effects of low nM concentrations of N-alkylamide 7 on FAAH activity alone and in combination with the FAAH inhibitor URB597. […] Data are mean values ± SEM of 3 independent experiments. • Figure 4: 1 and 9 inhibit LPS-induced TNF-alpha release into culture medium (measured by ELISA). Human macrophages (10^6 cells) were stimulated with LPS (500 ng/ml) and treated with UCM707 and/or compounds 1 and 9 at 5 µM for 18 h. N = 3 ± SEM. • Figure 5: UCM707 (positive control) and compounds 1 and 9 diminish NO2^- production. Human macrophages (10^6 cells) were stimulated with LPS (500 ng/ml) and treated with UCM707 and/or compounds 1 and 9 at 5 µM for 18 h. Culture supernatants were assayed for nitrite levels, using the Griess reagent as a reflection of NO production. Results are the mean ± SEM of four independent experiments performed in duplicate • Figure 6: In CB receptor expressing human HaCaT keratinocytes (10^6 cells) UCM707 (control) 1 and 9 like the endocannabinoid anandamide (each 5 µM) inhibited tolerogen (10 µg/ml) induced chemokine IL-8 (6h stimulation and incubation). N = 3 ± SEM.
Background: Nitrite, measured by Griess reagent, commonly stands in for NO production.

In test [1] the test system is Arachidonoylethanolamide Transport (AEAT). Nature of the test: Cellular uptake of [3H]-AEA in U937 cells (assay C). In kind it is cell-based. Conditions: Homo sapiens, U-937; [3H]-AEA uptake, assay C (Tables 2 and 3).
The target in the next test is T1, CB1 (Homo sapiens, UniProt P21554).
T1 construct: purchased Perkin Elmer RBHCB1M
T1 sequence (P21554 whole entry): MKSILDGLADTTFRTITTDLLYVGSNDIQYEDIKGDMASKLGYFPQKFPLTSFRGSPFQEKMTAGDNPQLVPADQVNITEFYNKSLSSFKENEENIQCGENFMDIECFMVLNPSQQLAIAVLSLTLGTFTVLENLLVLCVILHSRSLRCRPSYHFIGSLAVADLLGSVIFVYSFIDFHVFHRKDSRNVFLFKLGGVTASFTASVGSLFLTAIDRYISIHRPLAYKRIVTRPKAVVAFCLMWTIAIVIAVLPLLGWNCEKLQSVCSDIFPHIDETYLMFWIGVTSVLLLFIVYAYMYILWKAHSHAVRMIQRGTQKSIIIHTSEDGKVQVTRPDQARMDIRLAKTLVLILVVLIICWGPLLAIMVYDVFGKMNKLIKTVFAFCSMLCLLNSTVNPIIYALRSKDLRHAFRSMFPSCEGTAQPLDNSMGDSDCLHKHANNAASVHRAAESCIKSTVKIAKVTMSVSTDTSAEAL
Nature of the test: Radioligand displacement assay on CB1 receptor. In kind it is binding. The method, then:
as §1

The subject of a further test is IL-8. Nature of the test: Induced chemokine IL-8 in HaCaT keratinocytes. In kind it is cell-based, human. The settings on record: Figure 6, 5 µM, tolerogen 10 µg/ml, 6h. The method, then:
as §2

Where two headings read alike, the source gives them in different places. Bounds are passed on as bounds.

Chain of CB2 (P34972 whole entry): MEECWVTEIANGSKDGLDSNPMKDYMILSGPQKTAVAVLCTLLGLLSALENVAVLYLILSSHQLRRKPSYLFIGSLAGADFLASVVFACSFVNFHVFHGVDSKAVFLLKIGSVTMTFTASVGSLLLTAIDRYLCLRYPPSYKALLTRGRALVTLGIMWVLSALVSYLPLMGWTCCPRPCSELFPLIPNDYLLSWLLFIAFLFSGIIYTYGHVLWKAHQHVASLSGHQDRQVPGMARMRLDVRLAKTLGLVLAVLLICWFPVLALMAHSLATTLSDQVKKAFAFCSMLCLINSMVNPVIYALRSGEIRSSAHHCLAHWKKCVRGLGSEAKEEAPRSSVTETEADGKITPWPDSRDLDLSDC

In the case of `CCCCCCC/C=C/C=C/C(=O)NCCO` [Example 1, (2E,4E)-N-(2-hydroxyethyl)dodeca-2,4-diene amide], the Ki on CB2 and on CB1 was over 20 µM throughout. The “NO2^- production” value in the test with NO2^- production is reported as “diminish”. Further, the EC50 in test [1] stood at 1.22 ± 0.24 µM. Moreover, in the test on IL-8, the “tolerogen induced chemokine IL-8” value is on record as “inhibited”.

As to `CCCCCCC/C=C/C=C/C(=O)NCCc1cccc(OC)c1` [Example 9, (2E,4E)-N-(3-methoxyphenethyl)dodeca-2,4-diene amide], the Ki at CB2 (displacement of 0.11 nM [3H]CP55,940, membrane recombinantly over-expressing CB2, read-out: Receptor affinity Ki CB2) was 9.44 ± 0.889 µM; on CB1, over 20 µM. The “NO2^- production” value in the test with NO2^- production is recorded as “diminish”. In addition, the EC50 in test [1] was determined as 0.87 ± 0.12 µM. Further, the “tolerogen induced chemokine IL-8” value with IL-8 is recorded as “inhibited”.

What is called Ki is the equilibrium dissociation constant of an inhibitor or competing ligand from its target. What is called EC50 is the concentration at which the effect is half-maximal.

Source of the values: patent EP2435019B1, “DODECA-2E,4E-DIENE AMIDES AND THEIR USE AS MEDICAMENTS AND COSMETICS” (Dr. August Wolff GmbH & Co. KG Arzneimittel, priority 2009, dated 2010).
